In patent US10519177B2, “Heterocyclic compounds and uses thereof” (Plexxikon Inc., priority 2013, dated 2019):

Legend:
[1] = tested on: MV-4-11 cells; experiment: Oncology cell growth assay MV-4-11 (CellTiter Glo); assay type: cell-based; conditions: Homo sapiens, MV4-11, 72 h; MV-4-11, 3d growth; read-out: Cell activity (IC50 μM) MV-4-11 3d-Growth
Summary of the method: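 MV-4-11 AML cells (MLL-AF4), 3000 per well, exposed to 8-point 1:3 compound titration from 10 μM top concentration (0.2% DMSO) for 72 h. Viability by CellTiter Glo luminescence, normalized to DMSO controls; pIC50 from four-parameter curve fit.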

[2] = biological target: BRD4-BD12 (1-477) (Homo sapiens (Human), UniProt O60885); experiment: Alphascreen binding assay BRD4-BD12; conditions: BRD4(1 2) H4; read-out: Biochemical activity (IC50 μM) BRD4(1 2) H4
Summary of the method: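 First, compound was preincubated 1 h at room temperature with the His-tagged BRD4 protein (BD1 44-164 or tandem BD12 1-477) and acetylated H4 peptide. Next, donor and acceptor beads were added at 7.5 μg/ml final. After 30 min, AlphaScreen emission was recorded.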

Compound	IC50 [1] [µM]	IC50 [2] [µM]
Cc1noc(C)c1-c1cnc2c(-c3ccc(C4(C(=O)O)CC4)cc3)cn(Cc3ccccn3)c2c1 [P-0964, 1-[4-[6-(3,5-dimethylisoxazol-4-yl)-1-(2-pyridylmethyl)pyrrolo[3,2-b]pyridin-3-yl]phenyl]cyclopropanecarboxylic acid]	< 1	< 1
COC(=O)c1ccc(-c2cn(CC3(C)CCCCC3)c3cc(-c4c(C)noc4C)cnc23)cc1 [P-0914, methyl 4-[6-(3,5-dimethylisoxazol-4-yl)-1-[(1-methylcyclohexyl)methyl]pyrrolo [3,2-b]pyridin-3-yl]benzoate]	1 to 10	< 1
Cc1noc(C)c1-c1cnc2c(I)cn(C(c3ccccn3)C3CCOCC3)c2c1 (stereo not drawn) [P-1034, 4-[3-iodo-1-[2-pyridyl(tetrahydropyran-4-yl)methyl]pyrrolo[3,2-b]pyridin-6-yl]-3,5-dimethyl-isoxazole]	< 1	< 1
CNS(=O)(=O)c1cccc(-c2cn([C@@H](C)c3ccccn3)c3cc(-c4c(C)noc4C)cnc23)c1 [P-0980, 3-[6-(3,5-dimethylisoxazol-4-yl)-1-[(1S)-1-(2-pyridyl)ethyl]pyrrolo[3,2-b]pyridin-3-yl]-N-methyl-benzenesulfonamide]	< 1	< 1
Cc1noc(C)c1-c1cnc2c(-c3ccc(CC(=O)O)cc3)cn(C(c3ccccn3)C3CCCCC3)c2c1 (stereo not drawn) [P-1018, 2-[4-[1-[cyclohexyl(2-pyridyl)methyl]-6-(3,5-dimethylisoxazol-4-yl)pyrrolo[3,2-b]pyridin-3-yl]phenyl]acetic acid]	< 1	< 1
Cc1noc(C)c1-c1cnc2c(-c3ccc(C(C)(C)C(=O)O)cc3)cn([C@@H](C)c3ccccn3)c2c1 [P-1021, 2-[4-[6-(3,5-dimethylisoxazol-4-yl)-1-[(1S)-1-(2-pyridyl)ethyl]pyrrolo[3,2-b]pyridin-3-yl]phenyl]-2-methyl-propanoic acid]	< 1	< 1
COC(=O)Cc1ccc(-c2cn(C(c3ccccn3)C3CCCCC3)c3cc(-c4c(C)noc4C)cnc23)cc1 (stereo not drawn) [P-1017, methyl 2-[4-[1-[cyclohexyl(2-pyridyl)methyl]-6-(3,5-dimethylisoxazol-4-yl)pyrrolo[3,2-b]pyridin-3-yl]phenyl]acetate]	< 1	< 1
COC(=O)c1ccc(-c2cn([C@H](c3ccccn3)C3CC3)c3cc(-c4c(C)noc4C)cnc23)cc1 [P-0989, methyl 4-[1-[(S)-cyclopropyl(2-pyridyl)methyl]-6-(3,5-dimethylisoxazol-4-yl)pyrrolo[3,2-b]pyridin-3-yl]benzoate]	< 1	< 1
Cc1noc(C)c1-c1cnc2c(-c3ccc(C(=O)O)cc3)cn(Cc3ccccc3F)c2c1 [P-0926, 4-[6-(3,5-dimethylisoxazol-4-yl)-1-[(2-fluorophenyl)methyl]pyrrolo[3,2-b]pyridin-3-yl]benzoic acid]	< 1	< 1
Cc1noc(C)c1-c1cnc2c(-c3ccc(C4(C(=O)O)CC4)cc3)cn([C@@H](C)c3ccccn3)c2c1 [P-0955, 1-[4-[6-(3,5-dimethylisoxazol-4-yl)-1-[(1S)-1-(2-pyridyl)ethyl]pyrrolo[3,2-b]pyridin-3-yl]phenyl]cyclopropanecarboxylic acid]	< 1	< 1
Cc1noc(C)c1-c1cnc2c(I)cn(Cc3ncccc3F)c2c1 [P-0947, 4-[1-[(3-fluoro-2-pyridyl)methyl]-3-iodo-pyrrolo[3,2-b]pyridin-6-yl]-3,5-dimethyl-isoxazole]	< 1	< 1
Cc1noc(C)c1-c1cnc2c(I)cn([C@@H](c3ccccn3)C3CC3)c2c1 [P-0985, 4-[1-[(R)-cyclopropyl(2-pyridyl)methyl]-3-iodo-pyrrolo[3,2-b]pyridin-6-yl]-3,5-dimethyl-isoxazole]	< 1	< 1
Cc1noc(C)c1-c1cnc2c(-c3ccc(P(=O)(O)O)cc3)cn(C(C)c3ccccc3)c2c1 (stereo not drawn) [P-0928, [4-[6-(3,5-dimethylisoxazol-4-yl)-1-(1-phenylethyl)pyrrolo[3,2-b]pyridin-3-yl]phenyl]phosphonic acid]	1 to 10	< 1
COC(=O)c1ccc(-c2cn(Cc3cccc(OC)n3)c3cc(-c4c(C)noc4C)cnc23)cc1 [P-0930, methyl 4-[6-(3,5-dimethylisoxazol-4-yl)-1-[(6-methoxy-2-pyridyl)methyl]pyrrolo[3,2-b]pyridin-3-yl]benzoate]	1 to 10	< 1
Cc1noc(C)c1-c1cnc2c(I)cn([C@H](c3ccccn3)C3CC3)c2c1 [P-0988, 4-[1-[(S)-cyclopropyl(2-pyridyl)methyl]-3-iodo-pyrrolo[3,2-b]pyridin-6-yl]-3,5-dimethyl-isoxazole]	< 1	< 1
Cc1noc(C)c1-c1cnc2c(-c3ccc(C(=O)O)cc3)cn(Cc3ccccc3C#N)c2c1 [P-0923, 4-[1-[(2-cyanophenyl)methyl]-6-(3,5-dimethylisoxazol-4-yl)pyrrolo[3,2-b]pyridin-3-yl]benzoic acid]	< 1	< 1
CC(=O)Nc1ccc(-c2cn([C@@H](C)c3ccccn3)c3cc(-c4c(C)noc4C)cnc23)cc1 [P-0984, N-[4-[6-(3,5-dimethylisoxazol-4-yl)-1-[(1S)-1-(2-pyridyl)ethyl]pyrrolo[3,2-b]pyridin-3-yl]phenyl]acetamide]	< 1	< 1
COc1cc(-c2cn(Cc3cccc(C)n3)c3cc(-c4c(C)noc4C)cnc23)ccc1C(=O)O [P-0941, 4-[6-(3,5-dimethylisoxazol-4-yl)-1-[(6-methyl-2-pyridyl)methyl]pyrrolo[3,2-b]pyridin-3-yl]-2-methoxy-benzoic acid]	< 1	< 1
COc1cc(-c2cn(Cc3ccccn3)c3cc(-c4c(C)noc4C)cnc23)ccc1C(=O)O [P-0953, 4-[6-(3,5-dimethylisoxazol-4-yl)-1-(2-pyridylmethyl)pyrrolo[3,2-b]pyridin-3-yl]-2-methoxy-benzoic acid]	< 1	< 1
Cc1noc(C)c1-c1cnc2c(-c3ccc(C(=O)O)c(F)c3)cn(C(c3ccccn3)C3CCCC3)c2c1 (stereo not drawn) [P-1037, 4-[1-[cyclopentyl(2-pyridyl)methyl]-6-(3,5-dimethylisoxazol-4-yl)pyrrolo[3,2-b]pyridin-3-yl]-2-fluoro-benzoic acid]	< 1	< 1
Cc1cccc(Cn2cc(-c3ccc(C(=O)O)cc3)c3ncc(-c4c(C)noc4C)cc32)n1 [P-0916, 4-[6-(3,5-dimethylisoxazol-4-yl)-1-[(6-methyl-2-pyridyl)methyl]pyrrolo[3,2-b]pyridin-3-yl]benzoic acid]	< 1	< 1
COc1cc(-c2cn([C@@H](C)c3ccccn3)c3cc(-c4c(C)noc4C)cnc23)ccc1C(=O)O [P-0938, 4-[6-(3,5-dimethylisoxazol-4-yl)-1-[(1S)-1-(2-pyridyl)ethyl]pyrrolo[3,2-b]pyridin-3-yl]-2-methoxy-benzoic acid]	< 1	< 1
Cc1noc(C)c1-c1cnc2c(-c3cnn(CC(F)(F)F)c3)cn(CC3(C)CCOCC3)c2c1 [P-0971, 3,5-dimethyl-4-[1-[(4-methyltetrahydropyran-4-yl)methyl]-3-[1-(2,2,2-trifluoroethyl)pyrazol-4-yl]pyrrolo[3,2-b]pyridin-6-yl]isoxazole]	< 1	< 1
CC[C@@H](c1ccccn1)n1cc(I)c2ncc(-c3c(C)noc3C)cc21 [P-0963, 4-[3-iodo-1-[(1S)-1-(2-pyridyl)propyl]pyrrolo[3,2-b]pyridin-6-yl]-3,5-dimethyl-isoxazole]	< 1	< 1
CC[C@@H](c1ccccn1)n1cc(-c2ccc(C3(C(=O)OC)CC3)cc2)c2ncc(-c3c(C)noc3C)cc21 [P-0968, methyl 1-[4-[6-(3,5-dimethylisoxazol-4-yl)-1-[(1S)-1-(2-pyridyl)propyl]pyrrolo[3,2-b]pyridin-3-yl]phenyl]cyclopropanecarboxylate]	< 1	< 1
COC(=O)c1ccc(-c2cn(Cc3cccc(C)n3)c3cc(-c4c(C)noc4C)cnc23)cc1 [P-0915, methyl 4-[6-(3,5-dimethylisoxazol-4-yl)-1-[(6-methyl-2-pyridyl)methyl]pyrrolo[3,2-b]pyridin-3-yl]benzoate]	< 1	< 1
Cc1noc(C)c1-c1cnc2c(-c3ccc(C(=O)O)cc3)cn(C(c3ccccn3)C3CCCCC3)c2c1 (stereo not drawn) [P-1014, 4-[1-[cyclohexyl(2-pyridyl)methyl]-6-(3,5-dimethylisoxazol-4-yl)pyrrolo[3,2-b]pyridin-3-yl]benzoic acid]	< 1	< 1
Cc1noc(C)c1-c1cnc2ccn(C(c3ccccc3)c3ccccn3)c2c1 (stereo not drawn) [P-0913, 3,5-dimethyl-4-[1-[phenyl(2-pyridyl)methyl]pyrrolo[3,2-b]pyridin-6-yl]isoxazole]	< 1	< 1
Cc1noc(C)c1-c1cnc2c(-c3ccc(C(=O)O)cc3)cn(Cc3ccncc3)c2c1 [P-0937, 4-[6-(3,5-dimethylisoxazol-4-yl)-1-(4-pyridylmethyl)pyrrolo[3,2-b]pyridin-3-yl]benzoic acid]	< 1	< 1
Cc1noc(C)c1-c1ccc2c(-c3ccc(CC(=O)O)cc3)cn([C@@H](C)c3ccccn3)c2c1 [P-1031, 2-[4-[6-(3,5-dimethylisoxazol-4-yl)-1-[(1S)-1-(2-pyridyl)ethyl]indol-3-yl]phenyl]acetic acid]	< 1	< 1
